Data taken from US20240374734A1, “Immunomodulatory Combinations of Antigen and Drug-Lipid Conjugate” (Integrated Nanotherapeutics Inc., priority 2021, published 2024).
Like-named read-outs stand apart in the source and are kept apart here.

Tests used:
[1] = human, plasma, 2 h
[2] = Characterisation of prodrug LNP: particle size, PdI, prodrug entrapment; assay type: physicochemical; conditions: for % Entrap (Dex/Calcitriol): Calcitriol: Table 2, calcitriol prodrug; for PdI / Size: Table 2, prodrug LNP
Method: Lipid conjugates (prodrugs) were dissolved in ethanol, isopropanol, DMSO or THF. LNP were prepared by rapidly mixing DSPC or DMPC, cholesterol, prodrugs, and PEG-DSPE (in a molar ratio of 49/40/10/1) with phosphate-buffered saline (PBS) using a cross-junction mixer. Formulations were dialyzed against PBS to remove residual ethanol. In cases where a peptide antigen, such as ovalbumin peptide […] (OVA), was co-formulated within the LNP, the peptide is dissolved in PBS and rapidly mixed with the lipid phase. Dialysis or tangential flow filtration was used to remove all unentrapped peptide.
(§1) The physiochemical properties of the LNPs prepared as described above were subsequently characterized. Particle size was determined by dynamic light scattering using a Malvern Zetasizer Nano ZS (Malvern, UK) following buffer exchange into phosphate-buffered saline. Number-weighted size and distribution data was used. Lipid concentrations were determined by measuring total cholesterol using the Cholesterol E enzymatic assay kit from Wako Chemicals USA (Richmond, VA). mRNA entrapment was determined using a modified Quanti-iT Ribogreen assay (ThermoFisher, Waltham, MA). LNP-mRNA systems were incubated in the presence or absence of 1% Triton X-100 (Sigma-Aldrich, St. Louis, MO). Fluorescence intensities (Ex/Em: 480/520 nm) were compare to determine % mRNA entrapment.

[3] = Characterisation of LNP co-loaded with mRNA and prodrugs: Z-Ave, PDI, mRNA and prodrug entrapment; assay type: physicochemical
Method: To prepare LNPs that contain mRNA that codes for the antigen, ionizable lipid such as INT-A002 (see page 32 of co-owned WO 2021/026647; Application No. PCT/CA2020/051098, which is incorporated herein by reference), DSPC, cholesterol and PEG-DMG were dissolved in ethanol. Prodrugs were dissolved in ethanol, isopropanol, DMSO or THF. The mRNA was dissolved in 10 mM citrate or 25 mM acetate buffer at pH 4.0. LNP were prepared by rapidly mixing the lipid components in ethanol (in molar ratio of 45/8.5/35/1.5/10 of INT-A002/DSPC/chol/PEG-DMG/prodrugs) with nucleic acids in aqueous buffer at a volumetric flow rate ratio of 1:3 (ethanol to aqueous, combined flow rate 28 ml/min) at room temperature. The product was then dialyzed against 1× phosphate-buffered saline (PBS) at pH 7.4 for 24 hours to remove residual ethanol and to raise the pH.
as §1

[4] = system: CD4+ T cells from OT-II mice; experiment: Antigen-specific OT-II CD4+ T cell proliferation with OVA peptide and prodrug-treated BMDCs; assay type: cell-based; conditions: BMDCs pre-treated with prodrug LNP, pulsed with free OVA peptide
Excerpt: CD4 T cells were collected from OT-II mice. These mice have T cell receptors on CD4+ T cells engineered to bind and react to Ovalbumin 323-339 peptide fragment (OVA) when presented on I-Ab MHC Class II. When APCs are loaded with OVA and mixed with these T cells, a robust proliferation of T cells is observed (akin to having an antigen-specific immune disorder).
For the antigen specific model, splenocytes were isolated from OT-II mice (B6.Cg-Tg (TcraTcrb) 425Cbn/J; Jackson Laboratories). CD4+ T cells were purified by CD4 positive selection (EasySep™ Mouse CD4+ T Cell Isolation Kit, Catalog #19852, Stem Cell Technologies) and labelled with 10 μM CFSE and plated in 96-well U bottom plates at a density of 100,000 cells/well. On the same day, prodrug treated C57BL/6 BMDCs (described above) were harvested, pulsed with/without OVA peptide, irradiated at 30 Gy, and co-cultured with the CD4+ cells for 3 days at T:DC ratios of 50:1, 10:1 and 5:1, in RPMI 1640 media (supplemented with 10% FBS, 10 mM HEPES, 50 μM β-mercaptoethanol, 10 mM sodium pyruvate, 1× GlutaMAX, and 1% Pen/Strep). Subsequently, cells were stained for viability (eBioscience Fixable Viability Dye eFlour780, cat #65-0865) and CD4 (eBioscience CD4 Monoclonal Antibody (RM4-5), cat #48-0042-82), and T cell proliferation was quantified via CFSE dilution by flow cytometry.

[5] = system: Ova specific CD4+ T cells (OT-II T cells); experiment: OT-II CD4+ T cell proliferation after BMDC co-treatment with LNP-mRNA and prodrug-LNP; assay type: cell-based, mice; conditions: BMDCs treated 48 hours with LNP-mRNA only or LNP-mRNA and separate prodrug LNP
Method: The mRNA used in this example is modified to minimize immune stimulation and encodes for full length Ovalbumin (Ova) protein (Trilink, L-7210). Bone marrow-derived dendritic cells (BMDCs) were prepared as previously described and co-cultured with isolated CD4+ T cells (OT-II T cells) that specifically recognize the Ova323-339 epitope loaded in H-2b MHC Class II (C57BL/6 haplotype). Proliferation was assessed based on CFSE dilution by flow cytometry. BMDCs pulsed for 4 hours with free Ova323-339 peptide (0.1 μg/mL) served as an antigen-loaded control (Free Ova Peptide), and untreated BMDCs served as the No Antigen control. 48 hours prior to co-culturing, BMDCs were treated with LNP-mRNA only or LNP-mRNA and LNP containing dexamethasone (D034) or calcitriol (D053) prodrugs.

[6] = Retention of lipid conjugate (prodrug) in LNP after incubation in human plasma; conditions: 2 hours incubation in human plasma; DSPC/Chol/Prodrug/DSPE-PEG LNP
[7] = Table 6, LNP-mRNA with lipid conjugate

| Compound | lipid conjugate (prodrug) remaining in LNPs [1] | % Entrap (Dex/Calcitriol): Calcitriol [2] | PdI [2] | Size [2] [nm] | % mRNA Entrap. [3, 7] [%] | PDI [3, 7] | Z-Ave (nm) ([3]; Table 6, LNP-mRNA with lipid conjugate (mol %)) | T cell proliferation induced by OVA loaded BMDCs [4] | T-cell proliferation (CFSE dilution) [5] | lipid conjugate (prodrug) remaining in LNPs [6] |
| --- | --- | --- | --- | --- | --- | --- | --- | --- | --- | --- |
| CCCCC/C=C\C/C=C\CCCCCCCC(=O)O[C@@H](C/C=C\CCCCCCCCOC(=O)CCC(=O)OCC(=O)[C@@]1(O)[C@H](C)C[C@H]2[C@@H]3CCC4=CC(=O)C=C[C@]4(C)[C@@]3(F)[C@@H](O)C[C@@]21C)CCCCCC [Prodrug D045, 2-((8S,9R,10S,11S,13S,14S,16R,17R)-9-fluoro-11,17-dihydroxy-10,13,16-trimethyl-3-oxo-6,7,8,9,10,11,12,13,14,15,16,17-dodecahydro-3H-cyclopenta[a]phenanthren-17-yl)-2-oxoethyl ((R,Z)-12-(linoleoyloxy)octadec-9-en-1-yl) succinate] | stably retained |  |  |  |  |  |  |  |  |  |
| C=C1/C(=C\C=C2/CCC[C@]3(C)[C@@H]([C@H](C)CCCC(C)(C)O)CC[C@@H]23)C[C@@H](OC(=O)CCCCCCC/C=C\C[C@@H](CCCCCC)OC(=O)CCCCCCC/C=C\C/C=C\CCCCC)C[C@@H]1OC(=O)CCCCCCC/C=C\C[C@@H](CCCCCC)OC(=O)CCCCCCC/C=C\C/C=C\CCCCC [Prodrug D087] |  | —/99% | 0.055 | 40 |  |  |  |  |  |  |
| (1R,3S,Z)-3-hydroxy-5-(2-((1R,3aS,7aR,E)-1-((R)-6-hydroxy-6-methylheptan-2-yl)-7a-methyloctahydro-4H-inden-4-ylidene)ethylidene)-4-methylenecyclohexyl (R,Z)-12-acetoxyoctadec-9-enoate and (1S,5R,Z)-5-hydroxy-3-(2-((1R,3aS,7aR,E)-1-((R)-6-hydroxy-6-methylheptan-2-yl)-7a-methyloctahydro-4H-inden-4-ylidene)ethylidene)-2-methylenecyclohexyl (R,Z)-12-acetoxyoctadec-9-enoate [Prodrug D053] |  | —/98% | 0.070 | 55 | 97 | 0.034 | 69 | significantly reduces | suppressed | stably retained |
